Test results: PubChem BioAssay AID1159558 (GlaxoSmithKline (GSK), 2015)
The source made the active and inactive calls.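 The calls were made as follows: active = IC50 against T. cruzi CYP51 below a set limit; inactive = the rest.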

Molecular target: Sterol 14-alpha demethylase (Trypanosoma cruzi (strain CL Brener)) (UniProt Q7Z1V1)
Assay: T. cruzi sterol 14-alpha demethylase inhibition – biochemical, recombinant enzyme, mechanism study for T. cruzi antiparasitic project, dose response (AID 1159558);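 also: enzyme in bacterial membranes with Anopheles gambiae CYP reductase and cytochrome b5 partners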
Settings: recombinant T. cruzi CYP51, BOMCC fluorescence

Sterol 14-alpha demethylase (Trypanosoma cruzi (strain CL Brener)), sequence (Q7Z1V1 whole entry, looked up): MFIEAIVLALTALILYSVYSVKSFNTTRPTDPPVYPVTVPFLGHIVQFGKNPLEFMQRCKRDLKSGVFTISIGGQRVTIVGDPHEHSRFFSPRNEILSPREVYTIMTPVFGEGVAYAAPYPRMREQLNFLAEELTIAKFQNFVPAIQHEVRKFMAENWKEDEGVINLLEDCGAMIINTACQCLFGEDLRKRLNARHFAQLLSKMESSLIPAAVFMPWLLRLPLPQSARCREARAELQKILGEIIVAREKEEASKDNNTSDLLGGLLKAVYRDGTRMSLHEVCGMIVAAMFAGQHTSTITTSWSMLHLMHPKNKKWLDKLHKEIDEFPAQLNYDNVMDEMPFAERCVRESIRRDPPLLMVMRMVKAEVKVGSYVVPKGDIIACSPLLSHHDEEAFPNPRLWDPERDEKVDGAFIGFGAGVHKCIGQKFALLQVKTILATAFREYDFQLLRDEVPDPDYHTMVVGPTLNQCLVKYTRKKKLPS

Row | SMILES | IC50
1 | O=C(CCc1ccc(-c2ccccc2)o1)N1CCN(c2ccc(O)cc2)CC1 | 2.5 µM
2 | Cc1cc(C)n(-c2nc(NC(C)(C)C)nc(N3CCOCC3)n2)n1 | > 100 µM (inactive)
3 | Cn1nc(-c2ccc(NC(=O)Cc3ccccc3Cl)cc2)c2c(N)ncnc21 | 63 µM
4 | Cc1ccc(CNC2CCN(C[C@@H]3Cn4c(=O)ccc5ccc(=O)n3c54)CC2)cc1F | > 100 µM (inactive)
5 | COc1ccc2ncc(=O)n(CCN3CC[C@H](NCc4ncc(Cl)c5[nH]ncc45)[C@H](O)C3)c2n1 | > 100 µM (inactive)
6 | CN1CCC(N(C)c2nccc(N3CCN(C(=O)c4cccc(-c5cccnc5)c4)CC3)n2)CC1 | 1.6 µM
7 | NC(=O)c1ccsc1NC(=O)c1ccc([N+](=O)[O-])s1 | > 100 µM (inactive)
8 | CNC(=O)C1Cc2ccccc2N1C(=O)Cc1ccc(OC)cc1 (centres undefined) | > 100 µM (inactive)
9 | COc1ccc(Cc2nc(-c3ncc4cccnc4c3O)n[nH]2)cc1OC | > 100 µM (inactive)
10 | Cc1ccccc1NS(=O)(=O)c1ccc2[nH]cc(C(=O)NC3CCCC(C)C3C)c(=O)c2c1 (centres undefined) | 5 µM
11 | Oc1cccnc1-c1n[nH]c(Cc2ccccc2)n1 | > 100 µM (inactive)
12 | COc1cc(-c2nc(N3CCOCC3)sc2-c2ccnc(NC3CCOCC3)n2)ccc1Cl | > 100 µM (inactive)
13 | O=C1COC(c2ccccc2)(c2ccccc2)CN1C1CCN(Cc2ccc(-n3ccnc3)cc2)CC1 | 0.079 µM
14 | CC(Cn1ccnc1)NC(=O)C1CC1c1cccc(Cl)c1Cl (centres undefined) | 0.13 µM
15 | CCOC(=O)c1noc(N)c1-c1ccccc1 | > 100 µM (inactive)
16 | CC(C)C[C@H](NC(=O)c1ccc(-c2ccccc2)o1)C(=O)NC1(C#N)CC1 | > 100 µM (inactive)
17 | Cc1nc(-c2ccncc2)ncc1C(C)NC(=O)c1ccc(Cl)s1 (centres undefined) | 0.79 µM
18 | COc1ccc([N+](=O)[O-])cc1NC(=O)c1cc(Cl)ccc1O | > 100 µM (inactive)
19 | O=C(CCCNC(=O)c1ccc(Cl)cc1)Nc1nc(-c2ccccn2)cs1 | 3.2 µM
20 | CCCCn1nnnc1CSc1nc(C)cc(C)c1C#N | 50 µM
21 | Fc1ccccc1N1C[C@H]2CCN(c3cccnc3)C[C@H]2C1 | 0.063 µM
22 | COc1ccc(Nc2nc(NC3CCC(O)CC3)ncc2Br)c(C(N)=O)c1 (centres undefined) | 13 µM
23 | CCCc1nc2nc(N)nc(N)c2cc1CC | > 100 µM (inactive)
24 | O=C(COc1nn(-c2ccccc2)c2ncccc12)NCc1ccccc1 | 6.3 µM
25 | CCCC(=O)N(Cc1ccccn1)c1nc2ccccc2s1 | 0.05 µM

Row | SMILES | IC50
26 | Cc1c(C(C)NC(=O)Nc2cccc(Cl)c2)sc2ncnn12 (centres undefined) | 0.13 µM
27 | Cc1cc(NC(=O)C2CCCCC2)n(-c2nc3c(c(=O)[nH]2)CCC3)n1 | > 100 µM (inactive)
28 | COc1ccccc1C(=O)Nc1nnc(-c2ccc3c(c2)OCO3)s1 | > 100 µM (inactive)
29 | CCN(CC)S(=O)(=O)c1ccc(Cn2nc(C(=O)Nc3ccncn3)c3ccccc32)cc1 | 0.16 µM
30 | CCN(CC)c1nc(N(C)C)nc2c1CN(Cc1ccccc1)CC2 | 10 µM
31 | COc1ccc(-c2ccc3nnc(-c4ccc(O)c(OC)c4)n3c2)cn1 | > 100 µM (inactive)
32 | CCc1nn(-c2ncc(F)c(NC(C)C)n2)c(N)c1C1CCCCC1 | > 100 µM (inactive)
33 | COc1cccc(-c2cc(C(F)(F)F)nc(-n3ccc([N+](=O)[O-])n3)n2)c1 | > 100 µM (inactive)
34 | O=C(COc1ccccc1)Nc1ccccc1C(=O)Nc1nccs1 | > 100 µM (inactive)
35 | O=C(NCCc1csc(-c2ccc(F)cc2)n1)c1ccco1 | > 100 µM (inactive)
36 | COc1cc(C2SCC(=O)Nc3c2c(C)nn3-c2nc3ccccc3s2)cc(OC)c1O (centres undefined) | 5 µM
37 | CCOc1ccc(NC(=O)c2ccc(NC(=O)NC3CCCCC3)cc2)cc1 | > 100 µM (inactive)
38 | O=C(COc1ncnc2cc([N+](=O)[O-])ccc12)NC(=O)NC1CCCCC1 | > 100 µM (inactive)
39 | CC(=O)Nc1ccc(CN2CCC(N3CC(c4ccccc4)(c4ccccc4)OCC3=O)CC2)cc1 | > 100 µM (inactive)
40 | COc1cc2c(cc1OC)[C@H]1[C@@H](C)c3ccc(OC)c(OC)c3CN1CC2 | 79 µM
41 | CC(=O)NC1(c2ccccc2)CCN(CC(=O)Nc2ccccc2-c2ccccc2)CC1 | 50 µM
42 | O=C(Nc1ccccc1)Nc1nc(-c2ccccn2)cs1 | 32 µM
43 | CS(=O)(=O)c1ccc(Nc2nccc(-c3cnn4ncccc34)n2)cc1 | 16 µM
44 | O=C(Nc1nc(-c2ccccn2)cs1)C1CCc2ccccc2C1 (centres undefined) | 25 µM
45 | CCc1cccc(CC)c1-n1c(SCC(=O)N2CC(=O)Nc3ccccc32)nnc1-c1cccnc1 | 3.2 µM
46 | O=C(NNC(=O)c1ccccn1)c1ccc(-c2ccccc2)cc1 | 32 µM
47 | Cc1ccccc1OCC(=O)N1CCCN(c2cccnn2)CC1 | 0.079 µM
48 | NS(=O)(=O)c1ccc(CNC(=O)c2ccc([N+](=O)[O-])s2)cc1 | 40 µM
49 | CC1=C(C(=O)Nc2ccc(Cl)cc2)C(c2ccncc2)n2ncc(C(=O)Nc3ccccc3)c2N1 (centres undefined) | 0.13 µM
50 | CCOC(=O)c1cn[nH]c1S(=O)(=O)N1CCC1c1ccccc1 (centres undefined) | 50 µM

Row | SMILES | IC50
51 | O=C(c1ccc(O)c(Cl)c1)N1CCN(c2cnccn2)CC1 | > 100 µM (inactive)
52 | COc1cnc2ccc(=O)n(CCN3CCC(NC(=O)c4ccc(Cl)cc4)CC3)c2c1 | 10 µM
53 | O=C1CN(Cc2ccco2)C2CS(=O)(=O)CC2N1c1ccc(Cl)cc1 (centres undefined) | > 100 µM (inactive)
54 | Cc1cccc(NS(=O)(=O)c2cnc3sc(C)cn3c2=O)c1 | > 100 µM (inactive)
55 | CC(=O)Nc1ccc(-c2ccnc(Nc3cccc(C#N)c3)n2)cc1 | 25 µM
56 | Cc1cc(Nc2cc(C3CC3)[nH]n2)nc(N2CCC[C@H]2C(N)=O)n1 | > 100 µM (inactive)
57 | Cc1nc2c(-c3cccs3)c(C)nn2c(NCCO)c1C | > 100 µM (inactive)
58 | Cc1cc(NC(=O)c2ccc([N+](=O)[O-])s2)ccc1Br | 10 µM
59 | O=C(NCCNc1noc(-c2ccc([N+](=O)[O-])cc2)n1)c1ccc(Cl)cc1 | > 100 µM (inactive)
60 | CCc1cc(C(=O)Nc2nccn2-c2ccccc2)cs1 | > 100 µM (inactive)
61 | CC1(C)CCC(=Cc2ccc(Cl)cc2)CC1(O)Cn1ccnc1 (centres undefined) | 0.05 µM
62 | Cc1c([N+](=O)[O-])c(C(=O)Nc2sc3c(c2C#N)CCC(C)C3)nn1C (centres undefined) | > 100 µM (inactive)
63 | CC(c1cc(Cl)cc(Cl)c1)N(C)c1ncc2c(N)nc(N)nc2n1 (centres undefined) | 40 µM
64 | Cc1[nH]c2ccccc2c(=O)c1Cc1c(C)[nH]c2ccccc2c1=O | > 100 µM (inactive)
65 | O=C(NCC1CCCCN1C(=O)c1cccc2ccccc12)c1ccccc1 (centres undefined) | > 100 µM (inactive)
66 | O=C(Cc1ccccc1)Nc1[nH]nc2sc(C(=O)NC3CCCC3)cc12 | 32 µM
67 | COc1ccc(-c2csc(NC(=O)c3ccc([N+](=O)[O-])s3)n2)cc1 | > 100 µM (inactive)
68 | O=C1c2cnc(N3CCCC3)nc2CN1c1ccc2c(c1)OCO2 | > 100 µM (inactive)
69 | COc1ccc(-c2csc(NC(=O)c3ccc([N+](=O)[O-])s3)n2)cc1OC | > 100 µM (inactive)
70 | Cc1nc2c(-c3ncn[nH]3)cc(NC(=O)Cc3ccccc3)cn2c1C | 10 µM
71 | CCC(=O)Nc1ccccc1C(=O)Nc1ccccn1 | > 100 µM (inactive)
72 | O=C(Cn1cnc2cc([N+](=O)[O-])ccc2c1=O)NCCc1ccc(Cl)cc1Cl | > 100 µM (inactive)
73 | Cc1cc(Br)sc1CNCCCNc1cc(=O)c2ccccc2[nH]1 | 63 µM
74 | CC(C)C[C@H](NC(=O)c1csc(-c2cccs2)n1)C(=O)NC1(C#N)CC1 | > 100 µM (inactive)
